# US10086082B2, “Plant steroids and uses thereof” (DAVIDSON LOPEZ LLC, priority 2011, dated 2018)
# Tested on: Caco-2 cells
# Assay: Gene expression profiling of Caco-2 cells treated with compounds (Illumina HT-12 arrays, Volcano plots)
# Assay type: cell-based, human
# Details: gene array; for Interleukin-1, beta gene regulation: 24 hours exposure
# Method: Gene expression profiles were generated from 2.5 μM and 25 μM treatments of Caco-2 cells (ATCC).
# All compounds were individually applied to Caco-2 cells (250,000/well). After RNA isolation of each treatment, the isolated RNAs were individually labeled as cDNA probes and applied to Illumina HT-12 array chips.
# Key Genes Affected per Gene Class: Using the Inforsense Suite of Data Analysis tool (IDBS), a total of 36 Volcano plots were generated against 36 gene array assays (triplicate array assays per nontreatment and treatment of compounds). […] Genes were identified on both sides of the volcano plots (shaded in gray in FIG. 2) that were at a correlation coefficient of p<0.05.
# The human colon adenocarcinoma cell line Caco-2 was cultured in Dulbecco's Modified Eagle's Medium (Sigma-Aldrich) with 4.5 g/l glucose, L-glutamine, NaHCO3 and pyridoxine HCl supplemented with 1% (vol/vol) nonessential amino acids, 1% Na-pyruvate, 1% penicillin/streptomycin, and 10% (vol/vol) heat inactivated fetal calf serum, all purchased from Gibco BRL. Cell cultures were transferred weekly by trypsinization and incubated at 37° C. in a humidified incubator containing 5% CO2. […] Cells were exposed to each compound, respectively, for 24 hours.
# Total RNA was isolated according to the TRIzol manufacturer's instructions (Invitrogen). RNA quality was assessed with a 2100 Bioanalyzer (Agilent). RNA from pooled triplicates of the various cell treatments, all with an RNA integrity number >7, was further purified with Qiagen RNeasy columns. From 300 ng of total RNA, the Illumina TotalPrep RNA Amplification kit (Ambion) was used to generate amplified biotinylated cRNA after reverse transcription by the Eberwine procedure. cRNA (900 ng) was hybridized overnight to Illumina HT-12 BeadArrays, which were then washed and stained with streptavidin-Cy3 (Amersham-Pharmacia Biotech) according to the Illumina protocol. Arrays were scanned on a BeadArray Reader (Illumina).
# Specific transcripts within the biotinylated cRNA were measured by fluorescent imaging after direct hybridization to HT-12 bead arrays, which contain 12 arrays per slide, each with an average of 15 beads for each of 48,803 probes measuring 37,846 annotated genes and additional transcripts. Raw measurements of the intensity of each bead were captured directly and processed as “bead-level” for the samples, as described below. For both treated and non-treated samples, measurements were processed as “probe-level” data by GenomeStudio software (Illumina). […]
molecule,measurement,value
"CC[C@H](/C=C/[C@@H](C)[C@H]1CC[C@H]2[C@@H]3CC=C4C[C@@H](OC(=O)CCC(=O)OCC(=O)[C@@]5(O)CC[C@H]6[C@@H]7CCC8=CC(=O)C=C[C@]8(C)[C@H]7[C@@H](O)C[C@@]65C)CC[C@]4(C)[C@H]3CC[C@]12C)C(C)C [SE-24, Stigmasterol Prednisolone Succinate Diester]","Interleukin-1, beta gene regulation",up-regulated
same,interleukin receptor and interleukins affected,affected
same,similarity of gene profile to prednisone,more similar gene profiles to prednisone
Stigmasterol Triethyleneglycol Prednisolone Succinate [SE-22],"Interleukin-1, beta gene regulation",up-regulated
